Source: patent US20250034216A1, “STEREOSELECTIVE COVALENT LIGANDS FOR ONCOGENIC AND IMMUNOLOGICAL PROTEINS” (The Scripps Research Institute, priority 2021, published 2025)

Tests used:
Experiment in all cases: IA-DTB cysteine engagement
Type in all cases: binding
Conditions in all cases: 22Rv1 cells, 20 μM probe, 1 h, relative to DMSO
TOMM70_C214 = target: T1, TOMM70_C214 (Homo sapiens, UniProt O94826)
T1 construct: endogenous in cells; host or cells: 22Rv1
T1 sequence (O94826 1-608): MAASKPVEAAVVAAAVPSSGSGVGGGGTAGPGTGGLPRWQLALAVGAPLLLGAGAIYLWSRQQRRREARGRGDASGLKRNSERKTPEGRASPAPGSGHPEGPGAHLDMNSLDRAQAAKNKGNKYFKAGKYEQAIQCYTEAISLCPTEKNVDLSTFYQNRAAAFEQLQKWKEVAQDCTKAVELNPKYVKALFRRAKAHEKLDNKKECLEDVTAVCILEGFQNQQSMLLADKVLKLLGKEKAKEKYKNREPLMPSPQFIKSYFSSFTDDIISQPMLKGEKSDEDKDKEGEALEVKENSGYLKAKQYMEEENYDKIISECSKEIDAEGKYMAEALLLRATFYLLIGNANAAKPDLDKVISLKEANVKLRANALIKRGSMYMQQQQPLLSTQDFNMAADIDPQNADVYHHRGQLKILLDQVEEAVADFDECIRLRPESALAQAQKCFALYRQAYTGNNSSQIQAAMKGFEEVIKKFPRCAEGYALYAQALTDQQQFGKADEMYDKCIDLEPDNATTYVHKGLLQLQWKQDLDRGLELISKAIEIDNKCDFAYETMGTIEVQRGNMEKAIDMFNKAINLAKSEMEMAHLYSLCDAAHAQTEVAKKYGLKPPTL
In short: (§1)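 In-situ probe treatment of cells; lysate 2 mg/mL, IA-DTB 1 h RT; MeOH/CHCl3 precipitation, DTT/iodoacetamide, trypsin; streptavidin enrichment; TMT labeling, high-pH fractionation. Ratio = TMT reporter intensity / mean DMSO channels, median-normalized.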

FXYD3_C63 = target: T2, FXYD3_C63 (Homo sapiens, UniProt Q14802)
T2 construct: endogenous in cells; host or cells: 22Rv1
T2 sequence (Q14802 21-87): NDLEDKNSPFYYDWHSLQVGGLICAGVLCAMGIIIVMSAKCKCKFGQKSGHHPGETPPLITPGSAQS
In short: as §1

ABCB8_C461 = target: T3, ABCB8_C461 (Homo sapiens, UniProt Q9NUT2)
T3 construct: endogenous in cells; host or cells: 22Rv1
T3 sequence (Q9NUT2 26-735): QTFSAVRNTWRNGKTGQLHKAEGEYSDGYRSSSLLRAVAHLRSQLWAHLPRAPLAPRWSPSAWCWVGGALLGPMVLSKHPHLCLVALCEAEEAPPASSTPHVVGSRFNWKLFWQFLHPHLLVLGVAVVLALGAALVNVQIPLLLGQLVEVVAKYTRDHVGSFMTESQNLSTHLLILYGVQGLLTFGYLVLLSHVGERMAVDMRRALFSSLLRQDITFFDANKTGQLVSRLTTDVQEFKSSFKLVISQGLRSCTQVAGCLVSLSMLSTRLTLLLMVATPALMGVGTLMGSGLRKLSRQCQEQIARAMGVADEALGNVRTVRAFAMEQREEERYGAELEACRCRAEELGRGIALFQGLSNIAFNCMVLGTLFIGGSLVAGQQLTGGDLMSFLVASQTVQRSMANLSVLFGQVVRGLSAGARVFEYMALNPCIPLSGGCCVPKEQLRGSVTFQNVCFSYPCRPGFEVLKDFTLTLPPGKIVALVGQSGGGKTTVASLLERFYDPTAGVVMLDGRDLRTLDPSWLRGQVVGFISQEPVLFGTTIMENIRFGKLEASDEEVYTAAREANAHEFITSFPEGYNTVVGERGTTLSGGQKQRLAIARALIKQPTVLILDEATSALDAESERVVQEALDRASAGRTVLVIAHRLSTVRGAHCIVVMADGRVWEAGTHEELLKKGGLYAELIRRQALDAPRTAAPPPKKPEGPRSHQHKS
In short: as §1

Compound | % engagement TOMM70_C214 (TOMM70_C214) [%] | % engagement FXYD3_C63 (FXYD3_C63) [%] | % engagement ABCB8_C461 (ABCB8_C461) [%]
C=CC(=O)N1C[C@@H](c2ccc(Br)cc2)[C@H]1C(=O)Nc1cccc2cccnc12 [MY-1A, (2S,3R)-1-acryloyl-3-(4-bromophenyl)-N-(quinolin-8-yl)azetidine-2-carboxamide] | 7.5 | 48.5 | −3
C=CC(=O)N1C[C@H](c2ccc(Br)cc2)[C@@H]1C(=O)Nc1cccc2cccnc12 [MY-1B, (2R,3S)-1-acryloyl-3-(4-bromophenyl)-N-(quinolin-8-yl)azetidine-2-carboxamide] | 29 | 52.5 | 0
C=CC(=O)N1C[C@H](c2ccc(Br)cc2)[C@H]1C(=O)Nc1cccc2cccnc12 [MY-3A, (2S,3S)-1-acryloyl-3-(4-bromophenyl)-N-(quinolin-8-yl)azetidine-2-carboxamide] | 30.5 | 43.5 | 32.5
C=CC(=O)N1C[C@H](c2ccc(Br)cc2)[C@H]1C(=O)Nc1cccc2cccnc12 [MY-3B, (2S,3S)-1-acryloyl-3-(4-bromophenyl)-N-(quinolin-8-yl)azetidine-2-carboxamide] | 71.5 | 71 | 66.5
